Some test systems named below: K562; Hs-578T; SR; IGROV-1; SK-MEL-5; OVCAR-5; CCRF-CEM; M14; MDA-MB-231; ACHN; UACC-257; MCF7; MOLT-4; TK-10; HCC 2998; HCT-15; NCI-H226; UACC-62; U-251; A498.
Holding throughout (assay): NCI-60 cell line screen, 48 h

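Protocol summary: plate cells (96-well), add compound at 5 concentrations, incubate 48 h, interpolate endpoints linearly. The concentration for 50% growth inhibition is given as GI50.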 Activity calls are given as the source filed them. No stated cut-off is given here; in the data, active = GI50 up to about 1.1 µM and inactive = higher.

As for `COc1ccc(NC2CC(C)N(C(=O)c3ccccc3)O2)cc1` (stereo not given), the GI50 with K562, in the assay on Hs-578T, in the assay on SR, in the assay with IGROV-1, in the assay with SK-MEL-5 and with OVCAR-5 was > 10 µM (inactive) throughout. Besides, the GI50 with CCRF-CEM, in the assay with M14, in the assay on MDA-MB-231, with ACHN, in the assay with UACC-257 and with MCF7 was > 10 µM (inactive) each time. Besides, the GI50 in the assay with MOLT-4 is > 10 µM (inactive); in the assay with TK-10, > 10 µM (inactive); in the assay with HCC 2998, > 10 µM (inactive); in the assay on HCT-15, above 10 µM.

For `CC(NC(=O)c1ccccc1)NC(=O)C(C)C(=O)Nc1ccccc1` (stereo not given), the GI50 in the assay on K562 is > 100 µM (inactive); with Hs-578T, 32.2 µM (inactive); with SR it was > 100 µM (inactive); with IGROV-1 it was > 100 µM (inactive); with NCI-H226, 89.5 µM (inactive); with SK-MEL-5, > 100 µM (inactive). Further, the GI50 in the assay on UACC-62, in the assay with OVCAR-5, with CCRF-CEM, in the assay on M14, in the assay on MDA-MB-231 and in the assay with ACHN was > 100 µM (inactive) in each case. The GI50 was > 100 µM (inactive) with UACC-257; > 100 µM (inactive) with MCF7; > 100 µM (inactive) with U-251; > 100 µM (inactive) in the assay with MOLT-4; 75.2 µM (inactive) in the assay on TK-10; above 100 µM with HCT-15.

Regarding `C[N+]1(CC[N+]2(C)CCCC2c2cccnc2)CCCC1c1cccnc1` (stereo not given), the GI50 was > 100 µM (inactive) in the assay on A498; 96.4 µM (inactive) in the assay with K562; > 100 µM (inactive) in the assay on Hs-578T; > 100 µM (inactive) in the assay with SR; > 100 µM (inactive) in the assay with IGROV-1; > 100 µM (inactive) in the assay with SK-MEL-5. In addition, the GI50 is > 100 µM (inactive) in the assay with UACC-62; > 100 µM (inactive) in the assay on OVCAR-5; > 100 µM (inactive) in the assay on M14; > 100 µM (inactive) in the assay with MDA-MB-231; > 100 µM (inactive) in the assay with ACHN; 76.2 µM (inactive) in the assay on UACC-257. Also, the GI50 was > 100 µM (inactive) in the assay with MCF7; 60 µM (inactive) in the assay on U-251; 2.75 µM (inactive) in the assay with MOLT-4; > 100 µM (inactive) in the assay with TK-10; > 100 µM (inactive) in the assay on HCC 2998; above 100 µM with HCT-15.

With `Cc1cn([C@@H]2O[C@H](CO[Si](C)(C)C(C)(C)C)[C@]3(O[C@H]3C(=O)NN)[C@H]2O[Si](C)(C)C(C)(C)C)c(=O)[nH]c1=O`, the GI50 in the assay with A498 was 16.9 µM (inactive); in the assay with K562, 2.75 µM (inactive); in the assay on Hs-578T, 2.72 µM (inactive); with IGROV-1, 6.22 µM (inactive); in the assay with NCI-H226, 12 µM (inactive); in the assay on SK-MEL-5 it was 10.4 µM (inactive). Further, the GI50 in the assay on UACC-62 is 10.6 µM (inactive); with OVCAR-5, 8.55 µM (inactive); in the assay on CCRF-CEM it was 2.42 µM (inactive); in the assay with M14 it was 7.18 µM (inactive); with MDA-MB-231 it was 3.57 µM (inactive); in the assay on ACHN, 5.86 µM (inactive). Moreover, the GI50 is 13 µM (inactive) in the assay on UACC-257; 4.26 µM (inactive) in the assay with MCF7; 4.23 µM (inactive) with U-251; 2.04 µM (inactive) with MOLT-4; 12.7 µM (inactive) in the assay on TK-10; 3.13 µM (inactive) in the assay on HCC 2998. Further, the GI50 in the assay with HCT-15 was 4.32 µM.

With `C[C@]12CCC(O)CC1=CC[C@@H]1[C@@H]2CC[C@]2(C)C(O)[C@H](n3ccnc3)C[C@@H]12` (stereo not given in full), the GI50 is > 100 µM (inactive) with A498; 12 µM (inactive) in the assay with K562; > 100 µM (inactive) with Hs-578T; 13.1 µM (inactive) with SR; > 100 µM (inactive) in the assay with IGROV-1; > 100 µM (inactive) in the assay on NCI-H226. In addition, the GI50 in the assay with SK-MEL-5 was 28.1 µM (inactive); in the assay on UACC-62, 77.1 µM (inactive); in the assay with OVCAR-5 it was > 100 µM (inactive); in the assay on CCRF-CEM it was 17.9 µM (inactive); in the assay with M14, > 100 µM (inactive); with MDA-MB-231, > 100 µM (inactive). For the same compound, the GI50 in the assay on ACHN is 62.2 µM (inactive); in the assay with UACC-257 it was 28.2 µM (inactive); in the assay on MCF7, 51.4 µM (inactive); in the assay with U-251 it was 52 µM (inactive); in the assay on MOLT-4, 17.4 µM (inactive); with TK-10, > 100 µM (inactive). This compound gave a GI50 in the assay with HCT-15 of 69.2 µM.

On to `NN/C(=N\S(=O)(=O)c1cc2ccccc2o1)Nc1ccc(Cl)cc1`, for which the GI50 in the assay with A498 is > 100 µM (inactive); with K562, > 100 µM (inactive); in the assay with Hs-578T, 39.8 µM (inactive); with SR it was > 100 µM (inactive); in the assay on IGROV-1 it was 53 µM (inactive); in the assay on NCI-H226, > 100 µM (inactive). The GI50 in the assay on SK-MEL-5 is > 100 µM (inactive); with UACC-62, > 100 µM (inactive); with OVCAR-5, > 100 µM (inactive); in the assay on CCRF-CEM, 2.02 µM (inactive); with M14, > 100 µM (inactive); in the assay on MDA-MB-231, 67.9 µM (inactive). The GI50 in the assay on ACHN was > 100 µM (inactive); in the assay with UACC-257, > 100 µM (inactive); with MCF7, > 100 µM (inactive); in the assay with U-251 it was 46.6 µM (inactive); in the assay with MOLT-4, > 100 µM (inactive); with TK-10, 72.6 µM (inactive). This compound also gave a GI50 with HCT-15 above 100 µM.

As to `O=C(NC1CCC(=O)N1C(=O)OCc1ccccc1)OCc1ccccc1` (stereo not given), the GI50 in the assay with K562, in the assay on Hs-578T, in the assay with SR, in the assay with IGROV-1, in the assay with NCI-H226 and in the assay with SK-MEL-5 was > 100 µM (inactive) throughout. For the same compound, the GI50 with UACC-62, with OVCAR-5, in the assay on M14, with MDA-MB-231, in the assay with ACHN and in the assay on UACC-257 was > 100 µM (inactive) in each case. For the same compound, the GI50 in the assay with MCF7 was > 100 µM (inactive); with U-251, > 100 µM (inactive); with MOLT-4, > 100 µM (inactive); with TK-10 it was > 100 µM (inactive); with HCC 2998 it was > 100 µM (inactive); in the assay with HCT-15, above 100 µM.

Regarding `O=C(O)CC(Nc1ccccc1)C(=O)O` (stereo not given), the GI50 in the assay with A498, in the assay on K562, in the assay on Hs-578T, in the assay on SR, with IGROV-1 and in the assay with NCI-H226 was > 100 µM (inactive) each time. In addition, the GI50 in the assay with SK-MEL-5, in the assay with UACC-62, with OVCAR-5, with CCRF-CEM, in the assay with M14 and in the assay on MDA-MB-231 was > 100 µM (inactive) each time. Also, the GI50 in the assay with ACHN, in the assay on UACC-257, in the assay on MCF7, in the assay on U-251, in the assay on MOLT-4 and in the assay on TK-10 was > 100 µM (inactive) in each case. The compound further yielded a GI50 in the assay with HCT-15 above 100 µM.

As to `Cc1ccc(S(=O)(=O)N/N=C2/C3CC4CCC2C4C3)cc1` (stereo not given), the GI50 in the assay on A498, in the assay on Hs-578T, in the assay with IGROV-1, in the assay on NCI-H226, in the assay on SK-MEL-5 and in the assay on UACC-62 was > 100 µM (inactive) throughout. In addition, the GI50 with OVCAR-5, in the assay with M14, with MDA-MB-231, in the assay on ACHN, in the assay on UACC-257 and in the assay on MCF7 was > 100 µM (inactive) in each case. In addition, the GI50 is > 100 µM (inactive) with U-251, > 100 µM (inactive) in the assay with TK-10, > 100 µM (inactive) in the assay with HCC 2998 and above 100 µM with HCT-15.

Take `Cc1ccc2c3c1O[C@H]1c4nc5ccccc5cc4C[C@@]4(O)[C@@H](C2)N(CC2CC2)CC[C@]314`: the GI50 with A498 was 16.5 µM (inactive); in the assay on K562, 3.31 µM (inactive); in the assay with Hs-578T, 8.69 µM (inactive); in the assay with SR, 3.86 µM (inactive); in the assay with IGROV-1, 17.5 µM (inactive); with NCI-H226, 10.6 µM (inactive). Further, the GI50 in the assay on SK-MEL-5 was 7.18 µM (inactive); in the assay on UACC-62, 9.82 µM (inactive); in the assay with OVCAR-5 it was 12.7 µM (inactive); in the assay with CCRF-CEM, 1.39 µM (inactive); in the assay on M14, 12.5 µM (inactive); with MDA-MB-231 it was 11.2 µM (inactive). Also, the GI50 in the assay on ACHN is 10.4 µM (inactive); in the assay with UACC-257 it was 24.7 µM (inactive); in the assay on MCF7 it was 10.4 µM (inactive); with U-251 it was 5.74 µM (inactive); in the assay with MOLT-4 it was 2.5 µM (inactive); in the assay on TK-10, 29.6 µM (inactive). The GI50 in the assay on HCT-15 is 0.873 µM.

On to `Clc1ccc(CSC2=NCCN2)cc1Cl`, for which the GI50 was 21.3 µM (inactive) in the assay on A498; 13.5 µM (inactive) in the assay on K562; 19.8 µM (inactive) in the assay with Hs-578T; 18.9 µM (inactive) with IGROV-1; 20.7 µM (inactive) with NCI-H226; 12.7 µM (inactive) in the assay on SK-MEL-5. The GI50 was 15.9 µM (inactive) with UACC-62; 19.3 µM (inactive) with OVCAR-5; 5.36 µM (inactive) with CCRF-CEM; 15.2 µM (inactive) in the assay with M14; 11.8 µM (inactive) in the assay on MDA-MB-231; 15 µM (inactive) with ACHN. The GI50 with UACC-257 was 11.1 µM (inactive); in the assay with MCF7, 11.1 µM (inactive); in the assay with U-251, 12.5 µM (inactive); in the assay with MOLT-4, 11.2 µM (inactive); with TK-10, 16.7 µM (inactive); in the assay on HCC 2998, 15.2 µM (inactive). The GI50 in the assay on HCT-15 was 15 µM.

The values above are taken from ChEMBL document CHEMBL1201862, “PubChem BioAssay data set” (2004).
